Starred links: 1 amine or outer side, 2 acyl side, 3 side chain; linkers in the order of their positions; H or OH if unused. Positions of bridges follow the written chain, without caps; N, C: chain ends. Residues, ends and D or L forms follow the SMILES beside them. *: point of attachment. C18 diacid = O=C(O)CCCCCCCCCCCCCCCCC(=O)*; γGlu = O=C(O)[C@H](CCC(=O)[*:2])N[*:1]; AEEA = NCCOCCOCC(=O)O
Molecular target: T1, human natriuretic peptide receptor 2 (hNPR2) (Homo sapiens, UniProt P20594)
T1 construct: expressed in transfected cells; host or cells: HEK293 (ATCC CRL-1573), clone 35, co-transfected with pGloSensor-42F
T1 sequence (P20594 23-1047): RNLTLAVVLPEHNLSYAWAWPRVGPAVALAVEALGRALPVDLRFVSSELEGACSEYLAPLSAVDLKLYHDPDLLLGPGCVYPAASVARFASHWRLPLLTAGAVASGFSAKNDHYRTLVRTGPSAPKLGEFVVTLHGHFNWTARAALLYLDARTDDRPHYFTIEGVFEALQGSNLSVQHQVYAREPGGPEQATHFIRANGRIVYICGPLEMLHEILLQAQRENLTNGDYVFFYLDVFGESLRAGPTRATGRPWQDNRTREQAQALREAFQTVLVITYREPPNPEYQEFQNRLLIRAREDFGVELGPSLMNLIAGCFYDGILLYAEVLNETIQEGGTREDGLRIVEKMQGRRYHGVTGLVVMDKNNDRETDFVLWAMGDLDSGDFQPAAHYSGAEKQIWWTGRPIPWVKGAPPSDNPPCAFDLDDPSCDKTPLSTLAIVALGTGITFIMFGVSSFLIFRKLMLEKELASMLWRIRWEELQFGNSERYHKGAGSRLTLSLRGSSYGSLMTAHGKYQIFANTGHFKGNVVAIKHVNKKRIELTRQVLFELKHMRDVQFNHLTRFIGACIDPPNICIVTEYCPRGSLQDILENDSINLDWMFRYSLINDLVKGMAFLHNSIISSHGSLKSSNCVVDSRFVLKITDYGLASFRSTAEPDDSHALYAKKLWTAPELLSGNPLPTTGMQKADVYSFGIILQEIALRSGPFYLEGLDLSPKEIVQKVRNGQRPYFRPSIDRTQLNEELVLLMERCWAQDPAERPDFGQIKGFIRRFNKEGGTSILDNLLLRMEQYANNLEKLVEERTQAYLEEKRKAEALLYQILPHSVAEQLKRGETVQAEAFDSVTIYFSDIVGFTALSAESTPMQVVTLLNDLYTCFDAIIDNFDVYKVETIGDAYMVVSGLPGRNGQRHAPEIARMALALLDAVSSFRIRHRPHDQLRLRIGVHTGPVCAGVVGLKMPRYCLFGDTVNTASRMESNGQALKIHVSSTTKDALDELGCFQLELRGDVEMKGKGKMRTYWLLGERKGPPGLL
Experiment: In vitro hNPR2 activity assay (cGMP GloSensor reporter, HEK293)
Assay type: cell-based
Conditions: for hNPR2 0% HSA. [EC50% rel CNP]: potency relative to CNP22 (0065)
In short: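 Potency is the EC50 from a four-parameter logistic fit, also expressed relative to the in-plate CNP22 control (×100), with at least two replicates. Compounds (ten concentrations, […], HSA-free diluent with 1% OVA, 0.01% Tween20) were incubated 30 min at 37 °C on HEK293 cells co-expressing hNPR2 and a GloSensor cGMP luciferase. Luminescence detected with Bright-Glo.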

| Structure (SMILES) | hNPR2 0% HSA. [EC50% rel CNP] [%] | EC50 (0% HSA, HEK293-hNPR2/GloSensor cells) [nM] |
| --- | --- | --- |
| CC[C@H](C)[C@@H]1NC(=O)[C@H](CCCNC(=N)N)NC(=O)[C@H](CC(=O)O)NC(=O)[C@H](CC(C)C)NC(=O)[C@@H]2CCCN2C(=O)[C@H](CC(C)C)NC(=O)CNC(=O)[C@H](Cc2ccccc2)NC(=O)[C@@H](NC(=O)CNC(=O)[C@H](CO)NC(=O)[C@H](CO)NC(=O)[C@@H](NC(=O)CNC(=O)[C@H](CCCCN)NC(=O)[C@H](CCCCN)NC(=O)[C@H](CCC(N)=O)NC(=O)[C@H](C)NC(=O)CNC(=O)[C@H](Cc2c[nH]cn2)NC(=O)[C@H](CCC(=O)O)NC(=O)COCCOCCNC(=O)COCCOCCNC(=O)CC[C@H](NC(=O)CCCCCCCCCCCCCCCCC(=O)O)C(=O)O)C(C)C)CSSC[C@@H](C(=O)O)NC(=O)CNC(=O)[C@H](CC(C)C)NC(=O)CNC(=O)[C@H](CO)NC(=O)[C@H](CC(C)C)NC(=O)[C@H](CO)NC(=O)CNC1=O [compound 1311] ({C18 diacid-γGlu-AEEA-AEEA}-EHGAQKKGVSSGCFGLPLDRIGSLSGLGC-OH; disulfide 13-29; C-terminus assumed) | 12.7 | – |
| CC[C@H](C)[C@@H]1NC(=O)[C@H](CCCNC(=N)N)NC(=O)[C@H](CC(=O)O)NC(=O)[C@H](CC(C)C)NC(=O)[C@@H]2CCCN2C(=O)[C@H](CC(C)C)NC(=O)CNC(=O)[C@H](Cc2ccccc2)NC(=O)[C@@H](NC(=O)CNC(=O)[C@H](CO)NC(=O)[C@H](CO)NC(=O)[C@@H](NC(=O)CNC(=O)[C@@H](NC(=O)[C@H](CCCCN)NC(=O)[C@H](CCC(N)=O)NC(=O)[C@H](C)NC(=O)CNC(=O)[C@H](Cc2c[nH]cn2)NC(=O)[C@H](CCC(=O)O)NC(=O)COCCOCCNC(=O)COCCOCCNC(=O)CC[C@H](NC(=O)CCCCCCCCCCCCCCCCC(=O)O)C(=O)O)[C@@H](C)O)C(C)C)CSSC[C@@H](C(=O)O)NC(=O)CNC(=O)[C@H](CC(C)C)NC(=O)CNC(=O)[C@H](CO)NC(=O)[C@H](CC(C)C)NC(=O)[C@H](CO)NC(=O)CNC1=O [compound 1312] ({C18 diacid-γGlu-AEEA-AEEA}-EHGAQKTGVSSGCFGLPLDRIGSLSGLGC-OH; disulfide 13-29) | 9.0 | – |
| CC[C@H](C)[C@@H]1NC(=O)[C@H](CCCNC(=N)N)NC(=O)[C@H](CCC(=O)O)NC(=O)[C@H](CC(C)C)NC(=O)[C@H](CCCCN)NC(=O)[C@H](CC(C)C)NC(=O)CNC(=O)[C@H](Cc2ccccc2)NC(=O)[C@@H](NC(=O)CNC(=O)[C@H](CCCCN)NC(=O)[C@H](CO)NC(=O)[C@H](CC(C)C)NC(=O)CNC(=O)[C@H](Cc2c[nH]cn2)NC(=O)[C@H](Cc2c[nH]cn2)NC(=O)[C@H](CCC(N)=O)NC(=O)[C@H](C)NC(=O)CNC(=O)[C@H](Cc2c[nH]cn2)NC(=O)[C@H](Cc2ccc(O)cc2)NC(=O)COCCOCCNC(=O)COCCOCCNC(=O)CC[C@H](NC(=O)CCCCCCCCCCCCCCCCC(=O)O)C(=O)O)CSSC[C@@H](C(=O)O)NC(=O)CNC(=O)[C@H](CC(C)C)NC(=O)CNC(=O)[C@H](CO)NC(=O)[C@H](CC(C)C)NC(=O)[C@H](CO)NC(=O)CNC1=O [compound 1322] ({C18 diacid-γGlu-AEEA-AEEA}-YHGAQHHGLSKGCFGLKLERIGSLSGLGC-OH; disulfide 13-29; C-terminus assumed) | 1.9 | 4.73 |

Source: patent US20240209028A1, “CNP COMPOUNDS” (priority 2022, published 2024)
